Experimental data reported in patent US20030229067A1, “Pyrrolopyrimidine A2b selective antagonist compounds, their synthesis and use” (priority 2001, published 2003).

How the values were obtained:
human A2B receptor = molecular target: T1, human A2B receptor (Homo sapiens, UniProt P29275); test: Radioligand binding assay ([3H]-DPCPX competition), membranes of HEK293 stably expressing human A2B receptor; conditions: fold selectivity A2B over A1, A2A and A3 receptors, binding assays
T1 construct: expressed in transfected cells; membranes prepared from the cells
T1 sequence (P29275 1-332): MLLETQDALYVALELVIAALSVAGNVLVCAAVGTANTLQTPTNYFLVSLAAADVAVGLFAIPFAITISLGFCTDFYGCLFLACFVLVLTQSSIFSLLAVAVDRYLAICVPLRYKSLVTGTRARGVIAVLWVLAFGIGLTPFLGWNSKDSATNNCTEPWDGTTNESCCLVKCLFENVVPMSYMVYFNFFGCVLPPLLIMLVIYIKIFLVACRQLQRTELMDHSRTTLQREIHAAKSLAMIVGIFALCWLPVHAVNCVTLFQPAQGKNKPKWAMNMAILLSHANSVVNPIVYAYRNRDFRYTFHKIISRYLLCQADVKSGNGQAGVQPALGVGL
Text: Materials. [^3H]—DPCPX [cyclopentyl-1,3-dipropylxanthine] (120 Ci/mmol) was purchased from New England Nuclear (Boston, Mass.). The adenosine deaminase and complete protease inhibitor cocktail tablets were purchased from Boehringer Mannheim Corp. (Indianapolis, Ind.). Cell culture reagents were from Life Technologies (Grass Island, N.Y.) except for serum that was from Hyclone (Logan, Utah).
Cell line. HEK293 stably expressing the human A2B receptor were used for radioligand binding assays. Cells were grown in DMEM Glutamax containing 10% FBS, 0.2 mg/ml G418 at 37° C. in 5% CO2/95% atmosphere.
Membrane Preparation. Cells were washed with cold PBS buffer twice, scraped off the plates, and centrifuged at 1000×g for 5 minutes. Cells were homogenized with ice-cold buffer of 5 mM Tris, pH 7.4, 5 mM EDTA, 5 mM EGTA, protease inhibitor cocktail tablets and incubated for 10 min on ice. The homogenate was centrifuged at 32,000×g for 30 min. The membranes were resuspended in buffer of 50 mM Tris, pH 7.4, 0.6 mM EDTA, 5 mM MgCl2, stored at −80° C. until use. Protein concentration was determined by the methods of Bradford.
Radioligand binding assay. Membranes were homogenized in buffer containing 10 mM HEPES-KOH, pH 7.4 containing 1.0 mM EDTA; 2 U/ml adenosine deaminase; and 0.1 mM Benzamidine and incubated for 30 min at room temperature. Dissociation constants of radioligand (Kd values) and maximum binding sites (Bmax) were determined in saturation binding experiments. Saturation binding assays were carried out in a reaction mixture containing 50 μl of membrane suspension, 25 μl of 4% DMSO, 25 μl of increasing amounts of radioligand, [^3H]—DPCPX (final concentration 1-200 nM). […] Nonspecific binding was measured in the presence of […] NECA. Compounds were dissolved in
DMSO and then diluted with 4% DMSO; the final maximum DMSO concentrations were 1%. […] Reactions were terminated by rapid filtration over GF/C filters using a cell harvester. The filters were washed ten times with 0.4 ml of ice-cold buffer containing 10 mM HEPES-KOH, pH 7.4. The filters were dried, covered with scintillation fluid and counted with a TopCount.

With COC1(c2ccccc2Cl)CCN(C(=O)c2cc3c(NCCNC(C)=O)nc(-c4ccccc4)nc3[nH]2)CC1 [26.42, N-(2-{6-[4-(2-Chlorophenyl)-4-methoxypiperidine-1-carbonyl]-2-phenyl-7H-pyrrolo[2,3-d]pyrimidin-4-ylamino}-ethyl)-acetamide] the “selectivity for the A2B receptor relative to the A1, A2A, and A3 receptor” value (human A2B receptor) was 57 × and the melting point was 201 to 202 °C.
With CC(=O)NCCNc1nc(-c2ccccc2)nc2[nH]c(C(=O)N3CCC(C#N)(c4ccccc4Cl)CC3)cc12.CS(=O)(=O)O [26.237.MsOH, N-(2-{6-[4-(2-Chlorophenyl)4-cyanopiperidine-1-carbonyl]-2-phenyl-7H-pyrrolo[2,3-d]pyrimidin-4-ylamino}-ethyl)-acetamide methanesulfonic acid salt] the “selectivity for the A2B receptor relative to the A1, A2A, and A3 receptor” value (human A2B receptor) was 33 ×.
